From patent US7612064B2, “Sulfopyrroles” (Takeda Pharmaceutical Company Limited, priority 2003, dated 2009)

How the values were obtained:
[1] = system: Jurkat; experiment: MTS proliferation assay; type: cell-based, human; conditions: 72 h
Outline: (§1)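 Proliferation is assessed by MTS conversion, measured as 492 nm absorption. Cells are treated for three days (72 h) with four compound concentrations between 0.3 and 10 μM.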

[2] = system: HeLa; experiment: MTS proliferation assay; type: cell-based, human; conditions: 72 h
Outline: as §1

[3] = system: MRC5; experiment: MTS proliferation assay; type: cell-based; conditions: MRC5, 72 h
Outline: as §1

[4] = system: Jily; experiment: MTS proliferation assay; type: cell-based; conditions: 72 h
Outline: as §1

[5] = Hoechst 33342 nuclear staining; type: cell-based; conditions: for Hoechst 33342 nuclear staining score, H460: H460 cells; for Hoechst 33342 nuclear staining score, HeLa: HeLa cells; for Hoechst 33342 nuclear staining score, Jily: Jily cells; for Hoechst 33342 nuclear staining score, Jurkat: Jurkat cells; for Hoechst 33342 nuclear staining score, MRC5: MRC5 cells;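 on all read-outs here: apoptotic nuclei scored 0 none 1 weak under 50% of cells 2 strong over 50% of cells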
Outline: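 After a further 30 min incubation, plates were inspected on a standard inverted fluorescence microscope. The fraction of apoptotic nuclei and other apoptosis-specific morphology were scored as 0 for no activity, 1 for weak activity in less than 50% of the cells, and 2 for strong activity in more than 50% of the cells.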

[6] = conc 0.1 (final concentrations in μM), 24 h or 48 h incubation
[7] = conc 0.3 (final concentrations in μM), 24 h or 48 h incubation
[8] = conc 1 (final concentrations in μM), 24 h or 48 h incubation
[9] = conc 3 (final concentrations in μM), 24 h or 48 h incubation
[10] = conc 10 (final concentrations in μM), 24 h or 48 h incubation

Compound	IC50 [1] [nM]	IC50 [2] [nM]	IC50 [3] [nM]	Hoechst 33342 nuclear staining score, H460 ([5]; conc 0.1)	Hoechst 33342 nuclear staining score, H460 ([5]; conc 0.3)	Hoechst 33342 nuclear staining score, H460 ([5]; conc 1)	Hoechst 33342 nuclear staining score, H460 ([5]; conc 3)	Hoechst 33342 nuclear staining score, HeLa ([5]; conc 0.1)	Hoechst 33342 nuclear staining score, HeLa ([5]; conc 0.3)	Hoechst 33342 nuclear staining score, HeLa ([5]; conc 1)	Hoechst 33342 nuclear staining score, HeLa ([5]; conc 3)	Hoechst 33342 nuclear staining score, Jily ([5]; conc 0.1)	Hoechst 33342 nuclear staining score, Jily ([5]; conc 0.3)	Hoechst 33342 nuclear staining score, Jily ([5]; conc 1)	Hoechst 33342 nuclear staining score, Jily ([5]; conc 3)	Hoechst 33342 nuclear staining score, Jurkat ([5]; conc 0.1)	Hoechst 33342 nuclear staining score, Jurkat ([5]; conc 0.3)	Hoechst 33342 nuclear staining score, Jurkat ([5]; conc 1)	Hoechst 33342 nuclear staining score, Jurkat ([5]; conc 3)	Hoechst 33342 nuclear staining score, MRC5 ([5]; conc 0.1)	further results
COc1cc(-c2cc(-c3cccnc3)cn2S(=O)(=O)c2ccc([N+](=O)[O-])cc2)cc(OC)c1OC [Example 92]	> 1000	> 1000	> 1000	0	0	0	1 (weak activity comprising less than 50% of the cells)	0	0	0	0	0	0	0	2 (strong activity comprising more than 50% of the cells)	0	0	0	2 (strong activity comprising more than 50% of the cells)	0	IC50 [4]: > 1000 nM; Hoechst 33342 nuclear staining score, MRC5 ([5]; conc 0.3): 0; Hoechst 33342 nuclear staining score, MRC5 ([5]; conc 1): 0; Hoechst 33342 nuclear staining score, MRC5 ([5]; conc 3): 0; Hoechst 33342 nuclear staining score, PBLs ([5]; conc 0.1): 0; Hoechst 33342 nuclear staining score, PBLs ([5]; conc 0.3): 0; Hoechst 33342 nuclear staining score, PBLs ([5]; conc 1): 0; Hoechst 33342 nuclear staining score, PBLs ([5]; conc 3): 0
COc1ccc(S(=O)(=O)n2cc(-c3ccc(N)nc3)cc2-c2ccc(OC)cc2OC)cc1 [Example 102]	< 1000	> 1000	> 1000	0	0	1 (weak activity comprising less than 50% of the cells)	2 (strong activity comprising more than 50% of the cells)	0	0	1 (weak activity comprising less than 50% of the cells)	2 (strong activity comprising more than 50% of the cells)	0	0	2 (strong activity comprising more than 50% of the cells)	2 (strong activity comprising more than 50% of the cells)	0	0	2 (strong activity comprising more than 50% of the cells)	2 (strong activity comprising more than 50% of the cells)	0	IC50 [4]: < 1000 nM; Hoechst 33342 nuclear staining score, MRC5 ([5]; conc 0.3): 0; Hoechst 33342 nuclear staining score, MRC5 ([5]; conc 1): 0; Hoechst 33342 nuclear staining score, MRC5 ([5]; conc 3): 2 (strong activity comprising more than 50% of the cells); Hoechst 33342 nuclear staining score, PBLs ([5]; conc 0.1): 0; Hoechst 33342 nuclear staining score, PBLs ([5]; conc 0.3): 0; Hoechst 33342 nuclear staining score, PBLs ([5]; conc 1): 0; Hoechst 33342 nuclear staining score, PBLs ([5]; conc 3): 0
Cc1ccc(S(=O)(=O)n2cc(CN(C)C3CCN(Cc4ccccc4)C3)cc2-c2ccc3c(c2)OCO3)cc1 (centres unmarked) [Example 25]	> 1000	> 1000	> 1000																		Hoechst 33342 nuclear staining score, HeLa [5, 6]: 0; Hoechst 33342 nuclear staining score, HeLa [5, 7]: 0; Hoechst 33342 nuclear staining score, HeLa [5, 8]: 0; Hoechst 33342 nuclear staining score, HeLa [5, 9]: 1 (weak activity comprising less than 50% of the cells); Hoechst 33342 nuclear staining score, Jurkat [5, 6]: 0; Hoechst 33342 nuclear staining score, Jurkat [5, 7]: 0; Hoechst 33342 nuclear staining score, Jurkat [5, 8]: 0; Hoechst 33342 nuclear staining score, Jurkat [5, 9]: 0
CCN1CCN(CCNCc2cc(-c3ccc4c(c3)OCO4)n(S(=O)(=O)c3ccc(C)cc3)c2)CC1 [Example 15]	> 1000	> 1000	> 1000																		Hoechst 33342 nuclear staining score, HeLa [5, 6]: 0; Hoechst 33342 nuclear staining score, HeLa [5, 7]: 0; Hoechst 33342 nuclear staining score, HeLa [5, 8]: 0; Hoechst 33342 nuclear staining score, HeLa [5, 9]: 0; Hoechst 33342 nuclear staining score, Jurkat [5, 6]: 0; Hoechst 33342 nuclear staining score, Jurkat [5, 7]: 0; Hoechst 33342 nuclear staining score, Jurkat [5, 8]: 0; Hoechst 33342 nuclear staining score, Jurkat [5, 9]: 0
COc1cc(-c2cc(-c3cccnc3)cn2S(=O)(=O)c2ccc(OC(F)(F)F)cc2)cc(OC)c1OC [Example 77]	> 1000	> 1000	> 1000	0	0	0	1 (weak activity comprising less than 50% of the cells)	0	0	0	0	0	0	0	1 (weak activity comprising less than 50% of the cells)	0	0	0	2 (strong activity comprising more than 50% of the cells)	0	Hoechst 33342 nuclear staining score, MRC5 ([5]; conc 0.3): 0; Hoechst 33342 nuclear staining score, MRC5 ([5]; conc 1): 0; Hoechst 33342 nuclear staining score, MRC5 ([5]; conc 3): 0; Hoechst 33342 nuclear staining score, PBLs ([5]; conc 0.1): 0; Hoechst 33342 nuclear staining score, PBLs ([5]; conc 0.3): 0; Hoechst 33342 nuclear staining score, PBLs ([5]; conc 1): 0; Hoechst 33342 nuclear staining score, PBLs ([5]; conc 3): 0
Cc1ccc(S(=O)(=O)n2cc(CNc3ccc(-n4ccnc4)cc3)cc2-c2ccc3c(c2)OCO3)cc1 [Example 40]	> 1000	> 1000	> 1000																		Hoechst 33342 nuclear staining score, HeLa [5, 7]: 0; Hoechst 33342 nuclear staining score, HeLa [5, 8]: 0; Hoechst 33342 nuclear staining score, HeLa [5, 9]: 0; Hoechst 33342 nuclear staining score, HeLa [5, 10]: 0; Hoechst 33342 nuclear staining score, Jurkat [5, 7]: 0; Hoechst 33342 nuclear staining score, Jurkat [5, 8]: 0; Hoechst 33342 nuclear staining score, Jurkat [5, 9]: 0; Hoechst 33342 nuclear staining score, Jurkat [5, 10]: 0
